One assay deals with E. coli MG1655. In words: Flow cytometric particle counting of proliferation with antibiotic in 20 mins (FIG. 6C). Format: cell-based. The settings on record: sensitive strain E. coli MG1655, Terrific Broth. The source says:
Initial studies used a Sony SH-800 instrument, but all studies reported here used an Intellicyt® iQue screener PLUS. This instrument is based in significant measure on developments by Sklar and colleagues (e.g. (Edwards et al. 2009; Sklar et al. 2007; Tegos et al. 2014)), and uses segmented flow (Skeggs 1957) to sample from 96- or 384-well U- or V-bottom plates prior to their analysis. The iQue Plus contains three excitation sources (405 nm, 488 nm, 640 nm) and 7 fixed filter detectors (with a midpoint/range in nm of 445/45, 530/30, 572/28, 585/40, 615/24, 675/30, 780/60, giving 13 fluorescence channels) whose outputs are stored as both ‘height’ and area, using the FCS3.0 data file standard (Seamer et al. 1997). Forward and side scatter are obtained from the 488 nm excitation source. Detection channels are referred to by the laser used (405 nm violet VL, 488 nm blue BL, and 640 nm red RL) and the detector number in order of possible detectors with a longer wavelength. Thus RL1, as used for detecting di-S-C3(5), implies the red laser and the 675/30 detector. Data are collected from all channels, using a dynamic range of 7 logs. Many parameters may be used to vary the precise performance of the instrument. Those we found material to provide the best reproducibility and to minimise carryover, and their selected values, are as follows: Automatic prime—60 secs (in Qsol buffer); Pre-plate shake—15 s and 1500 rpm; Sip time—2 s (actual sample uptake); Additional sip time—0.5 s (the gap between sips); Pump speed—29 rpm (1.5 μL·s^−1 sample uptake); Plate model—U-bottom well plate (for 96 well plates); Mid plate cleanup—After every well (4 washes; 0.5 s each in Qsol buffer); Inter-well shake—1500 rpm; after 6 wells, 4 sec in Qsol buffer; Flush and Clean—30 sec with Decon and Clean buffers followed by 60 sec with deionised water. […] Where used, di-S-C3(5) was present at a final concentration of 3 μM; its analysis used excitation at 640 nm and detection at 675±15 nm, the fluorescence channel being referred to as RL1. […]
In general terms: Flow cytometry measures light scatter and fluorescence of single cells or particles in a stream.

Another assay concerns E. coli in UTI samples. In words: Flow cytometric antibiotic sensitivity of positive UTI urine samples (Firsway clinic) in Terrific Broth with diS-C3(5). Format: cell-based. The following applies: antibiotic at nominal 3x MIC. More on the design: key: R—resistant; S—sensitive. The source says: Initial studies used a Sony SH-800 instrument, but all studies reported here used an Intellicyt® iQue screener PLUS. This instrument is based in significant measure on developments by Sklar and colleagues (e.g. (Edwards et al. 2009; Sklar et al. 2007; Tegos et al. 2014)), and uses segmented flow (Skeggs 1957) to sample from 96- or 384-well U- or V-bottom plates prior to their analysis. The iQue Plus contains three excitation sources (405 nm, 488 nm, 640 nm) and 7 fixed filter detectors (with a midpoint/range in nm of 445/45, 530/30, 572/28, 585/40, 615/24, 675/30, 780/60, giving 13 fluorescence channels) whose outputs are stored as both ‘height’ and area, using the FCS3.0 data file standard (Seamer et al. 1997). Forward and side scatter are obtained from the 488 nm excitation source. Detection channels are referred to by the laser used (405 nm violet VL, 488 nm blue BL, and 640 nm red RL) and the detector number in order of possible detectors with a longer wavelength. Thus RL1, as used for detecting di-S-C3(5), implies the red laser and the 675/30 detector. Data are collected from all channels, using a dynamic range of 7 logs. Many parameters may be used to vary the precise performance of the instrument. Those we found material to provide the best reproducibility and to minimise carryover, and their selected values, are as follows: Automatic prime—60 secs (in Qsol buffer); Pre-plate shake—15 s and 1500 rpm; Sip time—2 s (actual sample uptake); Additional sip time—0.5 s (the gap between sips); Pump speed—29 rpm (1.5 μL·s^−1 sample uptake); Plate model—U-bottom well plate (for 96 well plates); Mid plate cleanup—After every well (4 washes; 0.5 s each in Qsol buffer); Inter-well shake—1500 rpm; after 6 wells, 4 sec in Qsol buffer; Flush and Clean—30 sec with Decon and Clean buffers followed by 60 sec with deionised water. The Forecyt™ software supplied with the instrument may be used to gate and display all the analyses post hoc. It, and the FlowJo software, were used in the preparation of the cytograms shown. Where used, di-S-C3(5) was present at a final concentration of 3 μM; its analysis used excitation at 640 nm and detection at 675±15 nm, the fluorescence channel being referred to as RL1. For DNA analyses, cells were fixed by injection into ice-cold ethanol (final concentration 70%), washed twice by centrifugation in 0.1 M-Tris/HCl buffer, pH 7.4, before resuspension in the same buffer containing mithramycin (50 μg mL^−1) and ethidium bromide (25 μg mL^−1), MgCl2, (25 mM) and NaCl (100 mM) (Boye et al. 1983). […] All the solutions and media used were filtered through 0.2 μm filter.
Samples were taken at various times during the day, kept at 4° C., delivered to the Manchester laboratory by taxi, plated out (LB agar containing as appropriate the stated antibiotics at 3 times normal MIC) to assess microbial numbers and antibiotic sensitivity, the remaining sample kept again at 4° C., and analysed flow cytometrically within 18 h. For flow cytometric assessment, cells were diluted into 37° C. Terrific Broth containing 3 μM diS-C3(5) plus any appropriate antibiotic, and assayed as above. For other experiments (not shown) cells were filtered (0.45 μm) and diluted as appropriate into warmed terrific broth.
Finally, we wished to determine whether this method, as developed in laboratory cultures, could be applied to candidate UTI specimens ‘as received’ in a doctor's surgery.

The mark [1] stands for this setting: UTI sample May 25, 2018 (first listed).
[2] abbreviates: UTI sample May 25, 2018 (second listed).

These results are taken from patent US20210395794A1, “Antimicrobial Susceptibility Assay and Kit” (The University of Manchester, priority 2018, published 2021).

Each structure is given as a SMILES string.

As for `O=C(O)c1cn(C2CC2)c2cc(N3CCNCC3)c(F)cc2c1=O` [Ciprofloxacin], in the assay with E. coli MG1655, the “Effect on cell proliferation” value is listed as “work effectively”.

With `O=C1CN(/N=C/c2ccc([N+](=O)[O-])o2)C(=O)N1` [Nitrofurantoin], the Antibiotic sensitivity entry in the assay with E. coli in UTI samples (UTI sample Jul. 16, 2018) was “S”; with E. coli in UTI samples (UTI sample Jul. 18, 2018), “R”; in the assay on E. coli in UTI samples (UTI sample Jul. 20, 2018), “S”; in the assay with E. coli in UTI samples (UTI sample Jun. 6, 2018), “S”; in the assay on E. coli in UTI samples (setting [1]), “S”; with E. coli in UTI samples (setting [2]) it was “S”.

Regarding `CC1(C)S[C@@H]2[C@H](NC(=O)[C@H](N)c3ccccc3)C(=O)N2[C@H]1C(=O)O` [Ampicillin], the Antibiotic sensitivity entry was “R” with E. coli in UTI samples (UTI sample Jul. 16, 2018); “R” in the assay on E. coli in UTI samples (UTI sample Jul. 18, 2018); “S” in the assay on E. coli in UTI samples (UTI sample Jul. 20, 2018); “R” in the assay on E. coli in UTI samples (UTI sample Jun. 6, 2018); “R” in the assay with E. coli in UTI samples (setting [1]); “S” in the assay with E. coli in UTI samples (setting [2]). Moreover, the “Effect on cell proliferation” value in the assay on E. coli MG1655 was “work effectively”.

For the compound `COc1cc(Cc2cnc(N)nc2N)cc(OC)c1OC` [Trimethoprim], the Antibiotic sensitivity entry with E. coli in UTI samples (UTI sample Jul. 16, 2018) was “S”; in the assay with E. coli in UTI samples (UTI sample Jul. 18, 2018), “S”; with E. coli in UTI samples (UTI sample Jul. 20, 2018), “R”; in the assay with E. coli in UTI samples (UTI sample Jun. 6, 2018) it was “S”; with E. coli in UTI samples (setting [1]), “R”; in the assay on E. coli in UTI samples (setting [2]), “S”. Further, the “Effect on cell proliferation” value with E. coli MG1655 is listed as “work effectively”.
